Each block holds one molecule with its values, some of them ahead of it.
Key:
Solubility (qualitative) = type: physicochemical
[1] = Storage stability of chelators and nonradioactive Re complexes; type: physicochemical; conditions: for hydrolysis observed on storage: under dry conditions at RT for 3 months
[2] = In vitro radiocomplex stability in PBS buffer with no challenger, L-cysteine or L-histidine; type: physicochemical; conditions: 37 °C
Procedure: Radiocomplex stability testing was carried out in PBS buffer (350–400 μL) with either no challenger or L-cysteine (50 μL, 10 mM) or L-histidine (50 μL, 10 mM) as the challenger. All stability tests also contained ascorbic acid (50 μL, 1 mg/mL in PBS, pH 7) as a radioprotectant. HPLC-purified radiocomplexes ([^99mTc]Tc, 50 μL, 3.7–5.6 MBq, 100–150 μCi; [^186Re]Re, 50 μL, 1.9–3.7 MBq, 50–100 μCi) were added to the stability testing solutions and incubated at 37 °C. Aliquots of each solution were taken at 1, 4, and 24 h, and the stability of the complex was determined by radio-HPLC (Methods 1 and 3) or radio-TLC (Developer 1). An additional stability time point of 48 h was taken for the [^186Re]Re complexes. The formation of colloidal [^99mTc]TcO2 or [^186Re]ReO2 was monitored at each time point by radio-TLC (Developers 1 and 2).

[3] = Radiocomplex stability in rat serum; type: in vitro ADME; conditions: 37 °C
Procedure: The radiocomplex stability was also tested in rat serum. HPLC-purified radiocomplexes ([^99mTc]Tc, 50 μL, 7.4–11.1 MBq, 200–300 μCi; [^186Re]Re, 50 μL, 3.0–3.7 MBq, 80–100 μCi) were added to solutions of rat serum (400 μL, Innovative-grade U.S. Origin Sprague–Dawley Rat Serum, Innovative Research, Novi, MI) and ascorbic acid (50 μL, 1 mg/mL in PBS, pH 7). The rat serum mixtures were incubated at 37 °C. Aliquots (100–300 μL) were taken at 1, 4, and 24 h for all radiocomplexes and also at 48 h for the [^186Re]Re complexes. The rat serum aliquots were added to a 4 times volume of acetonitrile to precipitate the rat serum proteins. The solutions were vortexed for 1 min and centrifuged for 10 min. The supernatant was carefully removed, and the pellet was washed with another portion of acetonitrile (100–500 μL). The solution was again vortexed and centrifuged, and the supernatant was removed. The activities in the combined supernatants (containing radiocomplex not bound to proteins) and the pellet (containing radiocomplex bound to proteins) were measured to determine the percentage of nonspecific protein binding for each radiocomplex. Finally, the solvent was removed from the supernatant under a stream of nitrogen, and the stability of the radiocomplexes was determined by radio-HPLC (Methods 1 and 3) after reconstitution in PBS (1 mM, pH 7.4). The formation of colloidal [^99mTc]TcO2 or [^186Re]ReO2 was also monitored at each time point by radio-TLC (Developers 1 and 2).

hydrolysis observed on storage [1]: no hydrolysis observed
Molecule: CCOC(=O)C[N+]12CC[N+]3(CC(=O)NCc4ccccc4)CC[N+](CC(=O)OCC)(CC1)[Re-2]32.[C-]#[O+].[C-]#[O+].[C-]#[O+] (stereo not shown) [Re-6, fac-[Re(CO)3(TACN-benzylamideethyl ester)]^+]

stability in PBS, L-cysteine, and L-histidine ([2]; through 4 h): > 90% | stability in PBS, L-cysteine, and L-histidine ([2]; through 24 h): > 79% | stability in rat serum ([3]; 24 h): 32 ± 10% | stability in rat serum ([3]; at 1 h): 94 ± 1%
Molecule: COC(=O)CN1CCN(CC(=O)NCc2ccccc2)CCN(CC(=O)OC)CC1.O=[C]=[99Tc+](=[C]=O)=[C]=O [[^99mTc]Tc-5]

stability in PBS, L-cysteine, and L-histidine ([2]; through 4 h): > 90% | stability in PBS, L-cysteine, and L-histidine ([2]; through 24 h): > 79% | stability in rat serum ([3]; 24 h): ≤ 2%
Molecule: CCOC(=O)CN1CCN(CC(=O)NCc2ccccc2)CCN(CC(=O)OCC)CC1.O=[C]=[99Tc+](=[C]=O)=[C]=O [[^99mTc]Tc-6]

stability in PBS, L-cysteine, and L-histidine ([2]; through 24 h): 100% | stability in rat serum ([3]; 24 h): > 60%
Molecule: COC(=O)CN1CCN(CC(=O)O)CCN(CC(=O)NCc2ccccc2)CC1.O=[C]=[99Tc+](=[C]=O)=[C]=O [[^99mTc]Tc-7]

stability in PBS, L-cysteine, and L-histidine ([2]; through 24 h): 100% | stability in rat serum ([3]; 24 h): > 60%
Molecule: CCOC(=O)CN1CCN(CC(=O)O)CCN(CC(=O)NCc2ccccc2)CC1.O=[C]=[99Tc+](=[C]=O)=[C]=O [[^99mTc]Tc-8]

stability in PBS, L-cysteine, and L-histidine ([2]; through 4 h): > 95% | stability in PBS, L-cysteine, and L-histidine ([2]; through/after 48 h): > 76% | stability in rat serum ([3]; 48 h): 4 ± 1% | stability in rat serum ([3]; at 1 h): 88 ± 1%
Molecule: COC(=O)CN1CCN(CC(=O)NCc2ccccc2)CCN(CC(=O)OC)CC1.O=[C]=[186Re+](=[C]=O)=[C]=O [[^186Re]Re-5]

stability in PBS, L-cysteine, and L-histidine ([2]; through 4 h): > 95% | stability in PBS, L-cysteine, and L-histidine ([2]; through/after 48 h): > 76% | stability in rat serum ([3]; 48 h): ≤ 2%
Molecule: CCOC(=O)CN1CCN(CC(=O)NCc2ccccc2)CCN(CC(=O)OCC)CC1.O=[C]=[186Re+](=[C]=O)=[C]=O [[^186Re]Re-6]

stability in PBS, L-cysteine, and L-histidine ([2]; through/after 48 h): > 94% | stability in rat serum ([3]; 48 h): 38%
Molecule: COC(=O)CN1CCN(CC(=O)O)CCN(CC(=O)NCc2ccccc2)CC1.O=[C]=[186Re+](=[C]=O)=[C]=O [[^186Re]Re-7]

stability in PBS, L-cysteine, and L-histidine ([2]; through/after 48 h): > 94% | stability in rat serum ([3]; 48 h): 42%
Molecule: CCOC(=O)CN1CCN(CC(=O)O)CCN(CC(=O)NCc2ccccc2)CC1.O=[C]=[186Re+](=[C]=O)=[C]=O [[^186Re]Re-8]

Further lines, the molecule ahead of its results:

Molecule: O=C(CN1CCNCCNCC1)NCc1ccccc1 [Chelator 3, N-Benzyl-2-(1,4,7-triazonan-1-yl)acetamide]
solubility (solvents in which soluble) (Solubility (qualitative)): soluble in water, methanol, and acetonitrile

Molecule: O=C(O)CN1CCN(CC(=O)O)CCN(CC(=O)NCc2ccccc2)CC1 [Chelator 4, TACN-benzylamide Acid]
solubility (solvents in which soluble) (Solubility (qualitative)): soluble in water, methanol, and acetonitrile | time stable on storage ([1]; at RT in an aqueous solution, in words): several months

Molecule: COC(=O)CN1CCN(CC(=O)NCc2ccccc2)CCN(CC(=O)OC)CC1 [Chelator 5, TACN-benzylamide Methyl Ester]
solubility (solvents in which soluble) (Solubility (qualitative)): soluble in methanol and acetonitrile | time stable on storage ([1]; stored in a methanol solution, afterwards ester hydrolysis observed): up to 1 week

Molecule: CCOC(=O)CN1CCN(CC(=O)NCc2ccccc2)CCN(CC(=O)OCC)CC1 [Chelator 6, TACN-benzylamide Ethyl Ester]
solubility (solvents in which soluble) (Solubility (qualitative)): soluble in ethanol and acetonitrile | time stable on storage ([1]; stored in an ethanol solution): up to 1 week

Molecule: COC(=O)CN1CCN(CC(=O)O)CCN(CC(=O)NCc2ccccc2)CC1 [Chelator 7, TACN-benzylamide Acid Methyl Ester]
solubility (solvents in which soluble) (Solubility (qualitative)): soluble in methanol, ethanol, and water

Molecule: CCOC(=O)CN1CCN(CC(=O)O)CCN(CC(=O)NCc2ccccc2)CC1 [Chelator 8, TACN-benzylamide Acid Ethyl Ester]
solubility (solvents in which soluble) (Solubility (qualitative)): soluble in ethanol and acetonitrile

Molecule: fac-[Re(CO)3(TACN-benzylamide acid)]^+ [Re-4]
solubility (solvents in which soluble) (Solubility (qualitative)): soluble in water and methanol | time stable on storage ([1]; stored under dry conditions, in words): several months

Molecule: fac-[Re(CO)3(TACN-benzylamide methyl ester)]^+ [Re-5]
hydrolysis observed on storage [1]: < 5%

Molecule: fac-[Re(CO)3(TACN-benzylamide)]^+ [Re-3]
solubility (solvents in which soluble) (Solubility (qualitative)): soluble in water | time stable on storage ([1]; stored under dry, dark conditions at RT): 1 month
